These results are taken from patent publication US6518262B1, “22R-hydroxycholesta-8, 14-diene derivatives for the inhibition of meiosis” (Akzo Nobel N.V., priority 1999, dated 2003).

In experiment [1] the test system is naturally occurring meiosis activating substance. The settings on record: as disclosed in WO98/28323; cited from earlier work.
A further experiment addresses T1, LXRα receptor (Homo sapiens, UniProt Q13133).
T1 sequence (Q13133 1-447): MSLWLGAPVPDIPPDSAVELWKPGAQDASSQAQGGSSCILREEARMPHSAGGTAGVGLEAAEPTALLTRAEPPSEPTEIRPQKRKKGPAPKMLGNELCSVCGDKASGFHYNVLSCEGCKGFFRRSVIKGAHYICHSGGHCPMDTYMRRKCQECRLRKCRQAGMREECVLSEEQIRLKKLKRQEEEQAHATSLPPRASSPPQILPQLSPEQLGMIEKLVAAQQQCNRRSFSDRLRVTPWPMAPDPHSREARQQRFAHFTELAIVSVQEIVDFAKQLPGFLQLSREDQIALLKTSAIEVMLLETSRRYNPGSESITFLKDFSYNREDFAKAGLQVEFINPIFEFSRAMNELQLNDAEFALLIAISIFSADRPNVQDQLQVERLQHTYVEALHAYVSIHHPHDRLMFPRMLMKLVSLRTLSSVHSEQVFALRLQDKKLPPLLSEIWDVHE
The settings on record: among a series of hydroxycholestane derivatives; cited from earlier work.

The test system of a further experiment is denuded oocytes (DO). The experiment in a line: Oocyte assay, antagonistic testing, inhibition of FF-Mas induced maturation in denuded oocytes (DO assay). It counts as cell-based, mice (B6D2-F1, strain C57BL×DBA). The settings on record: FF-Mas 5 μM, compound tested 5 μM, control (FF-Mas alone) in brackets. As for the experimental part:
(§1) The meiosis inhibiting activity of the 22R-hydroxycholesta-8,14-diene derivatives of the invention is measured in an in vitro oocyte assay as the ability to inhibit the FF-Mas or 22S-hydroxy-FF-Mas induced maturation, in hypoxanthine media, in denuded oocytes (DO) or cumulus enclosed oocytes (CEO), respectively. Natural resumption of meiosis can be mimicked in vitro by addition of FF-Mas or other agonists to the culture medium containing hypoxanthine. The antagonistic activity of the compounds is measured as the ability to inhibit the FF-Mas or 22S-hydroxy-FF-Mas induced oocyte maturation in denuded oocytes or cumulus enclosed oocytes, respectively, in vitro. Ovaries are obtained from immature female mice (B6D2-F1, strain C57BL×DBA). At the age of 19, 20 or 21 days the mice are injected subcutaneously with a single dose of 20 IU follicle stimulating hormone (Humegon, Organon, The Netherlands) in saline. Forty-eight hours after follicle stimulating hormone injection mice are killed by cervical dislocation. The ovaries are removed, freed of extraneous tissue and placed in a multidish containing 0.5 ml preparation medium at 37° C. L-15 Leibovitz medium (Gibco, pH 7.3±0.1) supplemented with bovine serum albumin (3 mg·ml^−1), L-glutamine (0.23 mM), sodium pyruvate (2 mM) and hypoxanthine (4 mM) is used as preparation medium. The antral follicles of the ovaries are punctured under a dissecting microscope using two 27-gauge needles attached to two 1 ml syringes. […] At t=0 the number of oocytes with intact germinal vesicles (GV) or germinal vesicle break-down (GVBD) is counted under an inverted microscope with differential interference contrast equipment. […] At the end of the culture period the number of oocytes with GV or GVBD per group is counted. For statistical analysis the percentage germinal vesicle breakdown is calculated for each group in one block. These percentages are subjected to arcsin transformation, and differences between control and test compounds are analyzed by an ANOVA test for a randomized block design. […]

Experiment [2] has as its system cumulus enclosed oocytes (CEO). Nature of the experiment: Oocyte assay, antagonistic testing, inhibition of 22S-hydroxy-FF-Mas induced maturation in cumulus enclosed oocytes (CEO assay). It counts as cell-based, mice (B6D2-F1, strain C57BL×DBA). The settings on record: 22S-hydroxy-FF-Mas 5 μM, control (22S-hydroxy-FF-Mas alone) in brackets. The procedure: as §1

For `CC(C)CC[C@@H](O)[C@@H](C)[C@H]1CC[C@H]2[C@@H]3CC=C4C[C@@H](O)CC[C@]4(C)[C@H]3CC[C@]12C` [22R-hydroxycholesterol], in experiment [1], the “antagonist activity (meiosis regulating)” value is “only weakly active as an antagonist”. Moreover, the “activation of the LXRα receptor” value at LXRα receptor is reported as “most potent activator of the LXRα receptor”. In addition, in the experiment with denuded oocytes (DO), the “% GVBD DO assay exp.” value is given as 38(89) %. In addition, in experiment [2], the “% GVBD CEO assay exp.” value is recorded as 52(89)^4%.
